Patent US20040072824A1, “Methods and compositions for the treatment of cancer” (priority 2001, published 2004)
Where two headings read alike, the source gives them in different places.

Experiments:
[1] = tested on: K562, U937, MDA-DB231, BT20 and MCF7 cell lines; assay: Cytotoxic effects in multi-well plate, 6 days, ATP level (CellTiter-Glo); conditions: 2x10^-9 M to 2x10^-4 M
Description: In order to test the cytotoxic effects of various compounds, a test was developed in a multi-well plate. Two leukemic cell lines, namely K562 and U937, and three breast cancer cell lines, namely MDA-DB231, BT20 and MCF7 were used for this test.
The cells were seeded at low density and were left for 24 hours to recover and reach a new logarithmic phase of growth. Various concentrations of the compounds being tested, ranging from 2×10^−9 M to 2×10^−4 M, were added in triplicate. The mixture was incubated for 6 days, during which approximately 4 doublings of the cell population occurred, to allow the cells to reach subconfluence.
The viability of the cultured cells after the treatment by the compounds was determined by quantifying the level of ATP since the level of ATP is directly proportional to the number of viable cells present in the culture. The ATP level was quantified by using CellTiter-Glo™ (Promega) luminescent test for cell viability.

[2] = tested on: blastic cells from AML patients; assay: Inhibition of viability of fresh leukemic cells (trypan blue exclusion); type: cell-based, human; conditions: Homo sapiens, day 3; for cytotoxicity at 10 µM: 10^-5 M; for cytotoxicity at 1 µM: 10^-6 M
Description: Samples for AML 1 through 5, AML 1 being the least and AML 5 being the most differentiated, were obtained. […] Cells were incubated with or without […] anti-histamine derivatives. Polaramine was included as a negative control. Cell counts were assessed by trypan blue exclusion test at day 3 after the incubation. Morphological analysis was performed using Wright-Giemsa staining on cytocentrifuge preparations. The results were expressed as % inhibition of growth as compared to negative control.

[3] = tested on: U937 cells; assay: Curative effects on palpable tumors, U937 cells in scid/scid mice; type: in vivo; conditions: for tumor growth: daily administration once tumors palpable (4 mm^3)
Description: In this series of experiments, effects of various compounds of the present invention on tumor development were tested using two protocols. The first protocol is directed to the testing of curative effects of these compounds in different cell lines. In this protocol, cancerous cells are inoculated to the animals, and the inoculated animals were left without any further treatment until the development of tumors. As soon as the tumors became palable (4 mm^3), the compounds of this invention were administered daily to the animals. Two different cell lines, i.e., U937 and MDA-MB-231 (breast cancer line), were used for this protocol to inoculate scid/scid mice.

[4] = tested on: U937; type: in vivo; conditions: treatment from day 1, cells inoculated after more than 24 hours, daily administration
Description: The second protocol was designed to test the preventive effects of the compounds of this invention on tumorigenesis. In this protocol, the animals have been treated with various compounds of the present invention on day 1. After more than 24 hours, tumoral cells were inoculated. The administration of the compounds of this invention was maintained daily. The cell line used for this test was U937.

[5] = tested on: U937 cells; assay: Antineoplastic activity, U937 cells injected in scid/scid mice, treatment from day 1; type: in vivo; conditions: 100 mg/kg; six mice
Description: Ten million U937 cells were subcutaneously injected into scid/scid mice. One injection was carried out per each of the 6 mice tested per set. The excipient or the compounds tested were administered intraperitoneally on day 1, i.e., the day of U937 cell line inoculation, of the experiment. The excipients or compounds were administered once daily. The tumor sizes were measured on day 5, day 8, day 12, day 14 and day 19 after the injection.

[6] = tested on: Poly ADP-Ribose Polymerase (PARP); assay: PARP cleavage in treated U937 cells (western blot); type: cell-based; conditions: 24 hours
Description: U937 cells were treated with various concentrations of hydroxyzine and promethazine for 24 hours. The proteins were isolated from these cells and loaded onto a gel for a western blot analysis. A specific anti-PARP antibody was used to visualize the location of PARP.

[7] = 72 h, MEAN over AML patients, read-out: In Vitro Percent Inhibition of Viability, MEAN
[8] = 72 h, patient ID 3, FAB AML2, read-out: In Vitro Percent Inhibition of Viability
[9] = 72 h, patient ID 4, FAB AML2, read-out: In Vitro Percent Inhibition of Viability
[10] = 72 h, patient ID 5, FAB AML2, read-out: In Vitro Percent Inhibition of Viability
[11] = 72 h, patient ID 10, FAB AML4, read-out: In Vitro Percent Inhibition of Viability
[12] = 72 h, patient ID 11, FAB AML5, read-out: In Vitro Percent Inhibition of Viability
[13] = 72 h, patient ID 12, FAB AML5, read-out: In Vitro Percent Inhibition of Viability
[14] = 72 h, patient ID 13, FAB AML5, read-out: In Vitro Percent Inhibition of Viability
[15] = 72 h, patient ID 14, FAB AML5, read-out: In Vitro Percent Inhibition of Viability
[16] = 72 h, patient ID 15, FAB AML5, read-out: In Vitro Percent Inhibition of Viability
[17] = AML1, 72 h, patient ID 1, FAB AML1, read-out: In Vitro Percent Inhibition of Viability
[18] = AML1, 72 h, patient ID 2, FAB AML1, read-out: In Vitro Percent Inhibition of Viability
[19] = AML3, 72 h, patient ID 6, FAB AML3, read-out: In Vitro Percent Inhibition of Viability
[20] = AML3, 72 h, patient ID 7, FAB AML3, read-out: In Vitro Percent Inhibition of Viability
[21] = AML3, 72 h, patient ID 8, FAB AML3, read-out: In Vitro Percent Inhibition of Viability
[22] = AML3, 72 h, patient ID 9, FAB AML3, read-out: In Vitro Percent Inhibition of Viability

CSc1ccc2c(c1)N(CCC1CCCCN1C)c1ccccc1S2 (centres unmarked) [S60, thioridazine]
cytotoxic effect group [1]: I
cytotoxicity at 10 µM [2, 7]: 53%
cytotoxicity at 1 µM [2, 7]: 14%
cytotoxicity at 10 µM [2, 8]: 91%
cytotoxicity at 1 µM [2, 8]: 12%
cytotoxicity at 10 µM [2, 9]: 42%
cytotoxicity at 1 µM [2, 9]: 19%
cytotoxicity at 10 µM [2, 10]: 51%
cytotoxicity at 1 µM [2, 10]: 35%
cytotoxicity at 10 µM [2, 11]: 48%
cytotoxicity at 1 µM [2, 11]: 6%
cytotoxicity at 10 µM [2, 12]: 43%
cytotoxicity at 1 µM [2, 12]: 39%
cytotoxicity at 10 µM [2, 13]: 88%
cytotoxicity at 10 µM [2, 14]: 62%
cytotoxicity at 1 µM [2, 14]: 15%
cytotoxicity at 10 µM [2, 15]: 15%
cytotoxicity at 1 µM [2, 15]: 25%
cytotoxicity at 10 µM [2, 16]: 27%
cytotoxicity at 1 µM [2, 16]: 0%
cytotoxicity at 10 µM [2, 17]: 42%
cytotoxicity at 1 µM [2, 17]: 8%
cytotoxicity at 10 µM [2, 18]: 13%
cytotoxicity at 1 µM [2, 18]: 8%
cytotoxicity at 10 µM [2, 19]: 89%
cytotoxicity at 1 µM [2, 19]: 13%
cytotoxicity at 10 µM [2, 20]: 95%
cytotoxicity at 1 µM [2, 20]: 12%
cytotoxicity at 10 µM [2, 21]: 56%
cytotoxicity at 1 µM [2, 21]: 0%
cytotoxicity at 10 µM [2, 22]: 38%
cytotoxicity at 1 µM [2, 22]: 0%
tumor growth [3]: delay in the tumor growth
tumor growth compared to the negative control [4]: decrease in tumor growth

Nc1ccn([C@@H]2O[C@H](CO)[C@@H](O)[C@@H]2O)c(=O)n1 [ARA-C, cytarabine]
mice that developed a tumor [5]: none of the six
tumor development ([3]; positive control, treated once tumors palpable): no tumor development

CN(C)CCCN1c2ccccc2Sc2ccc(Cl)cc21 [S59, chlorpromazine]
cytotoxic effect group [1]: I
cytotoxicity at 10 µM [2, 7]: 37%
cytotoxicity at 1 µM [2, 7]: 15%
cytotoxicity at 10 µM [2, 8]: 48%
cytotoxicity at 1 µM [2, 8]: 7%
cytotoxicity at 10 µM [2, 9]: 22%
cytotoxicity at 1 µM [2, 9]: 9%
cytotoxicity at 10 µM [2, 10]: 37%
cytotoxicity at 1 µM [2, 10]: 0%
cytotoxicity at 10 µM [2, 11]: 51%
cytotoxicity at 1 µM [2, 11]: 33%
cytotoxicity at 10 µM [2, 12]: 25%
cytotoxicity at 1 µM [2, 12]: 32%
cytotoxicity at 10 µM [2, 13]: 51%
cytotoxicity at 10 µM [2, 14]: 31%
cytotoxicity at 1 µM [2, 14]: 13%
cytotoxicity at 10 µM [2, 15]: 40%
cytotoxicity at 1 µM [2, 15]: 38%
cytotoxicity at 10 µM [2, 16]: 20%
cytotoxicity at 1 µM [2, 16]: 17%
cytotoxicity at 10 µM [2, 17]: 8%
cytotoxicity at 1 µM [2, 17]: 8%
cytotoxicity at 10 µM [2, 18]: 35%
cytotoxicity at 1 µM [2, 18]: 5%
cytotoxicity at 10 µM [2, 19]: 24%
cytotoxicity at 1 µM [2, 19]: 13%
cytotoxicity at 10 µM [2, 20]: 53%
cytotoxicity at 1 µM [2, 20]: 3%
cytotoxicity at 10 µM [2, 21]: 44%
cytotoxicity at 1 µM [2, 21]: 14%
cytotoxicity at 10 µM [2, 22]: 71%
cytotoxicity at 1 µM [2, 22]: 11%
tumor growth [3]: delay in the tumor growth
tumor growth compared to the negative control [4]: decrease in tumor growth

CN[C@@H]1C[C@H]2O[C@@](C)([C@@H]1OC)n1c3ccccc3c3c4c(c5c6ccccc6n2c5c31)C(=O)NC4 [staurosporine]
PARP cleavage (induction of apoptosis) [6]: cleave PARP
